Reference: ChEMBL document CHEMBL1201862, “PubChem BioAssay data set” (2004)
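96-well plates; 48 h exposure; 5 concentrations. Endpoints by linear interpolation between flanking doses. Not reached: highest tested concentration assigned. GI50: concentration for 50% inhibition of growth.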 Calls of active or inactive are those of the source. Rule as the data show it: active = GI50 up to about 1.1 µM and inactive = higher.

Legend:
Assay in all cases: inhibition of tumour cell growth, NCI panel, 48 h
[1] = test system: 786-0
[2] = test system: CCRF-CEM
[3] = test system: EKVX
[4] = test system: HCT-116
[5] = test system: HCT-15
[6] = test system: HOP-62
[7] = test system: HT-29
[8] = test system: LOX IMVI
[9] = test system: MDA-MB-435
[10] = test system: NCI-H226
[11] = test system: NCI/ADR-RES
[12] = test system: OVCAR-5
[13] = test system: OVCAR-8
[14] = test system: RXF 393
[15] = test system: SF-268
[16] = test system: SF-295
[17] = test system: SK-OV-3
[18] = test system: UACC-257
[19] = test system: UO-31

## COc1cc(/C=C2\CCc3cc(OC)c(OC)cc3C2=O)cc(OC)c1
[1]
  GI50: 4.66 µM (inactive)
[2]
  GI50: 4.08 µM (inactive)
[3]
  GI50: 24.3 µM (inactive)
[4]
  GI50: 3.81 µM (inactive)
[5]
  GI50: 3.62 µM
[6]
  GI50: 7.94 µM (inactive)
[7]
  GI50: 3.49 µM (inactive)
[8]
  GI50: 6.3 µM (inactive)
[9]
  GI50: 1.99 µM (inactive)
[10]
  GI50: 5.04 µM (inactive)
[11]
  GI50: 3.15 µM (inactive)
[12]
  GI50: 24.2 µM (inactive)
[13]
  GI50: 9.02 µM (inactive)
[14]
  GI50: 4.9 µM (inactive)
[15]
  GI50: 41.2 µM (inactive)
[16]
  GI50: 3.92 µM (inactive)
[17]
  GI50: 14.2 µM (inactive)
[18]
  GI50: 19.7 µM (inactive)
[19]
  GI50: 20.5 µM (inactive)

## Cc1cc2nc3[nH]c4c(Cl)cc(Cl)cc4c3nc2cc1C
[1]
  GI50: > 100 µM (inactive)
[2]
  GI50: 72.3 µM (inactive)
[3]
  GI50: > 100 µM (inactive)
[4]
  GI50: > 100 µM (inactive)
[5]
  GI50: > 100 µM
[6]
  GI50: > 100 µM (inactive)
[7]
  GI50: > 100 µM (inactive)
[8]
  GI50: > 100 µM (inactive)
[9]
  GI50: > 100 µM (inactive)
[10]
  GI50: > 100 µM (inactive)
[11]
  GI50: > 100 µM (inactive)
[12]
  GI50: > 100 µM (inactive)
[13]
  GI50: > 100 µM (inactive)
[14]
  GI50: 31.6 µM (inactive)
[15]
  GI50: > 100 µM (inactive)
[16]
  GI50: > 100 µM (inactive)
[17]
  GI50: > 100 µM (inactive)
[19]
  GI50: > 100 µM (inactive)

## CS(=O)(=O)N1CC(CCl)c2ccc(NO)cc21 (centres undefined)
[1]
  GI50: 13.4 µM (inactive)
[2]
  GI50: 1.83 µM (inactive)
[3]
  GI50: 16.7 µM (inactive)
[4]
  GI50: 14.7 µM (inactive)
[5]
  GI50: 14.2 µM
[6]
  GI50: 17.7 µM (inactive)
[7]
  GI50: 14.3 µM (inactive)
[8]
  GI50: 13.3 µM (inactive)
[9]
  GI50: 16.6 µM (inactive)
[10]
  GI50: 30 µM (inactive)
[11]
  GI50: 4.66 µM (inactive)
[12]
  GI50: 15.1 µM (inactive)
[13]
  GI50: 12.9 µM (inactive)
[14]
  GI50: 3.37 µM (inactive)
[15]
  GI50: 5.22 µM (inactive)
[16]
  GI50: 20 µM (inactive)
[17]
  GI50: 18.7 µM (inactive)
[18]
  GI50: 19.5 µM (inactive)
[19]
  GI50: 10.3 µM (inactive)

## C=C(c1ccccc1)c1ccccc1-c1cc(-c2ccccc2)cc(-c2ccccc2)n1
[1]
  GI50: > 100 µM (inactive)
[2]
  GI50: 84.9 µM (inactive)
[3]
  GI50: > 100 µM (inactive)
[4]
  GI50: 65.8 µM (inactive)
[5]
  GI50: > 100 µM
[6]
  GI50: > 100 µM (inactive)
[7]
  GI50: 99.5 µM (inactive)
[8]
  GI50: > 100 µM (inactive)
[9]
  GI50: 82.2 µM (inactive)
[10]
  GI50: > 100 µM (inactive)
[11]
  GI50: > 100 µM (inactive)
[12]
  GI50: > 100 µM (inactive)
[13]
  GI50: > 100 µM (inactive)
[14]
  GI50: > 100 µM (inactive)
[15]
  GI50: > 100 µM (inactive)
[16]
  GI50: > 100 µM (inactive)
[18]
  GI50: > 100 µM (inactive)
[19]
  GI50: > 100 µM (inactive)

## O=C(CSc1nnc(SCC(=O)NN=C2CCCCC2)s1)NN=C1CCCCC1
[1]
  GI50: > 100 µM (inactive)
[2]
  GI50: > 100 µM (inactive)
[3]
  GI50: > 100 µM (inactive)
[4]
  GI50: > 100 µM (inactive)
[5]
  GI50: > 100 µM
[6]
  GI50: > 100 µM (inactive)
[7]
  GI50: > 100 µM (inactive)
[8]
  GI50: > 100 µM (inactive)
[9]
  GI50: > 100 µM (inactive)
[10]
  GI50: > 100 µM (inactive)
[11]
  GI50: > 100 µM (inactive)
[12]
  GI50: > 100 µM (inactive)
[13]
  GI50: > 100 µM (inactive)
[14]
  GI50: > 100 µM (inactive)
[15]
  GI50: > 100 µM (inactive)
[16]
  GI50: > 100 µM (inactive)
[17]
  GI50: > 100 µM (inactive)
[18]
  GI50: > 100 µM (inactive)
[19]
  GI50: > 100 µM (inactive)

## Cc1c2cccc-2c(OCCOC(=O)n2ccnc2)cc2c1[nH]c1ccccc12
[1]
  GI50: 3.87 µM (inactive)
[3]
  GI50: 1.04 µM (active)
[4]
  GI50: 3.33 µM (inactive)
[5]
  GI50: 2.2 µM
[6]
  GI50: 5.48 µM (inactive)
[7]
  GI50: 2.27 µM (inactive)
[8]
  GI50: 1.89 µM (inactive)
[9]
  GI50: 3.12 µM (inactive)
[10]
  GI50: 2.39 µM (inactive)
[11]
  GI50: 2.82 µM (inactive)
[12]
  GI50: 2.55 µM (inactive)
[13]
  GI50: 2.18 µM (inactive)
[14]
  GI50: 2.57 µM (inactive)
[15]
  GI50: 2.6 µM (inactive)
[16]
  GI50: 2.96 µM (inactive)
[17]
  GI50: 4.74 µM (inactive)
[18]
  GI50: 2.73 µM (inactive)
[19]
  GI50: 1.84 µM (inactive)

## O=C1NC(=O)C23C(=O)NC(=O)C12C1C=CC3CC1 (centres undefined)
[1]
  GI50: > 10 µM (inactive)
[2]
  GI50: > 10 µM (inactive)
[3]
  GI50: > 10 µM (inactive)
[4]
  GI50: > 10 µM (inactive)
[5]
  GI50: > 10 µM
[6]
  GI50: > 10 µM (inactive)
[7]
  GI50: > 10 µM (inactive)
[8]
  GI50: > 10 µM (inactive)
[9]
  GI50: > 10 µM (inactive)
[10]
  GI50: > 10 µM (inactive)
[11]
  GI50: > 10 µM (inactive)
[13]
  GI50: > 10 µM (inactive)
[14]
  GI50: > 10 µM (inactive)
[15]
  GI50: > 10 µM (inactive)
[16]
  GI50: > 10 µM (inactive)
[17]
  GI50: > 10 µM (inactive)
[18]
  GI50: > 10 µM (inactive)
[19]
  GI50: > 10 µM (inactive)
